# From patent publication US12617752B2, “Rapidly metabolized lipid compound” (Beijing Jitai Life Sciences Ltd, priority 2023, dated 2026)
# Assays:
# [1] = Particle size and PDI of lipid nanoparticles by dynamic light scattering; assay type: physicochemical; conditions: lipid nanoparticles with luciferase mRNA; ionizable lipid/cholesterol/DSPC/DMG-PEG2000 50/38.5/10/1.5 mol%
# In short: (§1)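 LNPs of ionizable lipid/cholesterol/phospholipid/PEG-lipid (50/38.5/10/1.5 mol%, N/P 6) were formed by microfluidic mixing with mRNA in pH 4.5 acetate, then buffer-exchanged by ultrafiltration. Size and PDI were measured by DLS. Encapsulation came from RiboGreen fluorescence (485/528 nm) in TE pH 7.5, with and without 0.5% Triton at 37 °C for 30 min.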
# [2] = Encapsulation efficiency of lipid nanoparticles (Quant-it RiboGreen RNA Assay); assay type: physicochemical; conditions: lipid nanoparticles with luciferase mRNA
# In short: as §1
# C57BL/6 mice = experiment: In vivo delivery of luciferase mRNA lipid nanoparticles in mice (bioluminescence imaging); conditions: intravenous, single dose 0.5 mg/kg luciferase mRNA
# In short: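 Female C57BL/6 mice, 6-8 weeks old, received luciferase mRNA lipid nanoparticles as a single intravenous dose of 0.5 mg/kg mRNA. At 6 h, D-luciferin given intraperitoneally; 10 min later, mice were imaged under isoflurane anaesthesia. Values are group mean fluorescence intensity and total photon count.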
Structure (SMILES),Particle size (nm) [1],Particle-size distribution (PDI) [1],Encapsulation efficiency (%) [2],Total photon count in vivo at 6 hours after administration (Total Flux) (C57BL/6 mice)
CCCCCCCCCCC(=O)OCC(C)(C)CCCCCN(CCCCCCOC(=O)OC(CCCCCCCCC)CCCCCCCCC)C(=O)SCCCCN(C)C [46b],98.91 nm,0.09,97.78%,2.44E+10
CCCCCCCCCOC(=O)CCCCC(C)(C)CCN(CCO)CCCCCCOC(=O)OCC(CCCCCCC)CCCCCCC [47a],104.47 nm,0.21,93.23%,3.10E+10
CCCCCCCCCC(=O)OCC(C)(C)CCCCCN(CCCCCCOC(=O)OCC(CCCCCCC)CCCCCCC)C(=O)SCCCN(C)C [47b],122.40 nm,0.07,97.27%,2.84E+10
CCCCCCCCCCOC(=O)OCCCCCCN(CCO)CCCCCCC(C)(C)C(=O)OC(CCCCCCCCC)CCCCCCCCC [48a],81.22 nm,0.16,96.13%,8.16E+10
CCCCCCCCCCCOC(=O)OCCCCCCN(CCO)CCCCCCC(C)(C)C(=O)OC(CCCCCCCCCC)CCCCCCCCCC [49a],100.56 nm,0.14,94.85%,2.28E+10
CCCCCCCC(CCCCCCC)COC(=O)CCCCC(C)(C)CCN(CCO)CCCCCCOC(=O)OCC(CCCCCCC)CCCCCCC [50a],78.03 nm,0.12,98.67%,2.86E+10
CCCCCCCCOC(=O)OCC(C)(C)CCCCCN(CCCCCCOC(=O)CC(CCCCCCCC)CCCCCCCC)C(=O)SCCCCN(C)C [50b],98.36 nm,0.13,98.50%,1.01E+10
CCCCCCCCCOC(=O)CCCCCCCN(CCO)CCCCC(C)(C)COC(=O)OCC(CCCCCCC)CCCCCCC [51a],92.08 nm,0.15,94.81%,3.11E+10
CCCCCCCCCC(=O)OCC(C)(C)CCCCCN(CCO)CCCCCCCC(=O)OC(CCCCCCCCC)CCCCCCCCC [51b],91.96 nm,0.12,95.92%,7.60E+10
CCCCCCCCCSC(=O)CCCCCCCN(CCO)CCCCCCC(C)(C)C(=O)OC(CCCCCCCC)CCCCCCCC [52a],79.40 nm,0.09,93.30%,2.58E+10
CCCCCCCCCC(=O)OCC(C)(C)CCCCCN(CCCCO)CCCCCCCC(=O)OC(CCCCCCCCC)CCCCCCCCC [52b],105.97 nm,0.06,90.84%,1.01E+11
CCCCCCCCCCCSC(=O)CCCCCN(CCO)CCCCCCC(C)(C)C(=O)OC(CCCCCCCC)CCCCCCCC [53a],124.00 nm,0.23,90.96%,9.04E+10
CCCCCCCCCC(=O)OCC1(CCCCCN(CCO)CCCCCCCC(=O)OC(CCCCCCCCC)CCCCCCCCC)CC1 [53b],125.03 nm,0.42,91.92%,1.00E+11
CCCCCCC#CCOC(=O)CCCCCCCN(CCO)CCCCCCC(C)(C)C(=O)OC(CCCCCCCC)CCCCCCCC [54a],87.37 nm,0.14,91.34%,1.32E+10
CCCCCCCCCCC(=O)OCCC(C)(C)CCCCN(CCO)CCCCCCCC(=O)OC(CCCCCCCCC)CCCCCCCCC [54b],81.37 nm,0.17,96.69%,5.71E+10
CCCCCC#CCCOC(=O)CCCCCCCN(CCO)CCCCCCC(C)(C)C(=O)OC(CCCCCCCC)CCCCCCCC [55a],126.17 nm,0.16,73.85%,1.96E+10
CCCCCCCCCCC(=O)OCCC(C)(C)CCCCN(CCCCO)CCCCCCCC(=O)OC(CCCCCCCCC)CCCCCCCCC [55b],90.37 nm,0.11,94.65%,1.02E+11

Structure (SMILES),Particle size (nm) [1],Particle-size distribution (PDI) [1],Encapsulation efficiency (%) [2],Total photon count in vivo at 6 hours after administration (Total Flux) (C57BL/6 mice)
CCCCCCCCCC(=O)OCCC(C)(C)CCCCN(CCO)CCCCCCCC(=O)OCC(CCCCCCC)CCCCCCC [56b],98.59 nm,0.16,93.87%,8.35E+10
CCCCCC/C=C\COC(=O)CCCCCCCN(CCO)CCCCCCC(C)(C)C(=O)OC(CCCCCCCC)CCCCCCCC [57a],79.17 nm,0.17,95.41%,3.42E+10
CCCCCCCCCC(=O)OCCCC(C)(C)CCCN(CCO)CCCCCCCC(=O)OCC(CCCCCCC)CCCCCCC [57b],98.23 nm,0.18,94.15%,3.86E+10
CCCCCCCCCNC(=O)CCCCCCCN(CCO)CCCCCCC(C)(C)C(=O)OC(CCCCCCCC)CCCCCCCC [58a],187.50 nm,0.18,68.54%,2.72E+10
CCCCCCCCCC(=O)OCC1(CCCCCN(CCCO)CCCCCCCC(=O)OCC(CCCCCCC)CCCCCCC)CC1 [58b],112.93 nm,0.15,92.88%,6.17E+10
CCCCCCCCCC(=O)OCCC(C)(C)CCCCN(CCCCO)CCCCCCCC(=O)OCC(CCCCCCC)CCCCCCC [59b],127.23 nm,0.12,80.27%,1.04E+11
CCCCCCCCCCOC(=O)CCCCC(C)(C)CCN(CCCCCCCC(=O)OC(CCCCCCCCC)CCCCCCCCC)C(=O)SCCCCN(C)C [60a],92.74 nm,0.15,97.44%,1.75E+10
CCCCCCCCCOC(=O)CCCCC(C)(C)CCN(CCCCCCCC(=O)OCC(CCCCCCC)CCCCCCC)C(=O)SCCCN(C)C [61a],111.90 nm,0.09,95.87%,1.32E+10
CCCCCCCCCCCOC(=O)CCCCCN(CCO)CCCCC(C)(C)CCC(=O)OC(CCCCCCCC)CCCCCCCC [62a],98.07 nm,0.17,89.88%,1.20E+10
CCCCCCCCCCC(=O)OCC(C)(C)CCCCCN(CCCCO)CCCCCCCC(=O)OCCCC(CCCCCC)CCCCCC [63b],165.53 nm,0.09,84.27%,2.72E+10
CCCCCCCCCCCOC(=O)CCCCC(C)(C)CCN(CCO)CCCCCCCC(=O)OC(CCCCCCCCCC)CCCCCCCCCC [64a],86.99 nm,0.15,96.72%,9.82E+10
CCCCCCCCCC(=O)OCCCC(C)(C)CCCN(CCCCO)CCCCCCCC(=O)OCC(CCCCCCC)CCCCCCC [64b],143.67 nm,0.09,89.27%,3.36E+10
CCCCCCCCCCOC(=O)CCCCC(C)(C)CCN(CCO)CCCCCCCC(=O)OCC(CCCCCCCC)CCCCCCCC [65a],95.88 nm,0.16,95.93%,6.53E+10
CCCCCCCC(CCCCCCC)COC(=O)CCCCCCCN(CCO)CCCCCC(C)(C)COC(=O)CC(CCCCCCC)CCCCCCC [65b],80.60 nm,0.16,97.75%,1.25E+11
CCCCCCCCCCOC(=O)CCCCC(C)(C)CCN(CCCO)CCCCCCCC(=O)OC(CCCCCCCCC)CCCCCCCCC [66a],105.77 nm,0.11,92.88%,9.31E+10
CCCCCCCCCC(CCCCCCCCC)OC(=O)CCCCCCCN(CCO)CCCCCC(C)(C)COC(=O)CCCC(CCCCCC)CCCCCC [66b],81.83 nm,0.17,97.18%,4.35E+10
